Patent US8691816B2, “Pyrrole inhibitors of S-nitrosoglutathione reductase as therapeutic agents” (N30 Pharmaceuticals, Inc., priority 2008, dated 2014)

Molecular target: T1, GSNOR (GSNO Reductase) (Homo sapiens, UniProt P11766)
T1 construct: made in house; host or cells: E. coli (arabinose induction)
Assay: GSNOR assay (in vitro inhibition of GSNOR activity, NADH absorbance at 340 nm)
Type: biochemical
Conditions: 0.240 mM GSNO, 0.300 mM NADH, 0.5 μg/mL GSNO Reductase, pH 7.4, 25° C.
Protocol: Various compounds were tested in vitro for their ability to inhibit GSNOR activity. Representative compounds and their corresponding GSNOR activity are described in a paragraph before Table 1 above. GSNOR expression and purification is described in Biochemistry 2000, 39, 10720-10729.
GSNOR fermentation: Pre-cultures were grown from stabs of a GSNOR glycerol stock in 2XYT media containing 100 ug/ml ampicillin after an overnight incubation at 37° C. Cells were then added to fresh 2XYT (4 L) containing ampicillin and grown to an OD (A600) of 0.6-0.9 at 37° C. before induction. GSNOR expression was induced with 0.1% arabinose in an overnight incubation at 20° C.
GSNOR Purification: E. coli cell paste was lysed by nitrogen cavitation and the clarified lysate purified by Ni affinity chromatography on an AKTA FPLC (Amersham Pharmacia). The column was eluted in 20 mM Tris pH 8.0/250 mM NaCl with a 0-500 mM imidazole gradient. […] GSNOR was recovered in the flowthrough fraction and for crystallography is further purified by Q-Sepharose and Heparin flowthrough chromatography in 20 mM Tris pH 8.0, 1 mM DTT, 10 uM ZnSO4.
GSNOR assay: GSNO and Enzyme/NADH Solutions are made up fresh each day. The Solutions are filtered and allowed to warm to room temperature. GSNO Solution: 100 mM NaPO4 (pH 7.4), 0.480 mM GSNO. 396 μL of GSNO Solution is added to a cuvette followed by 8 μL of test compound in DMSO (or DMSO only for full reaction control) and mixed with the pipette tip. Compounds to be tested are made up at a stock concentration of 10 mM in 100% DMSO. 2 fold serial dilutions are done in 100% DMSO. 8 μL of each dilution are added to an assay so that the final concentration of DMSO in the assay is 1%. The concentrations of compounds tested range from 100 to 0.003 μM. Enzyme/NADH Solution: 100 mM NaPO4 (pH 7.4), 0.600 mM NADH, 1.0 μg/mL GSNO Reductase. 396 μL of the Enzyme/NADH Solution is added to the cuvette to start the reaction. The cuvette is placed in the Cary 3E UV/Visible Spectrophotometer and the change in 340 nm absorbance/min at 25° C. is recorded for 3 minutes. The assays are done in triplicate for each compound concentration. IC50's for each compound are calculated using the standard curve analysis in the Enzyme Kinetics Module of SigmaPlot.
Final assay conditions: 100 mM NaPO4, pH 7.4, 0.240 mM GSNO, 0.300 mM NADH, 0.5 μg/mL GSNO Reductase and 1% DMSO. Final volume: 800 μL/cuvette.

T1 sequence (P11766 whole entry): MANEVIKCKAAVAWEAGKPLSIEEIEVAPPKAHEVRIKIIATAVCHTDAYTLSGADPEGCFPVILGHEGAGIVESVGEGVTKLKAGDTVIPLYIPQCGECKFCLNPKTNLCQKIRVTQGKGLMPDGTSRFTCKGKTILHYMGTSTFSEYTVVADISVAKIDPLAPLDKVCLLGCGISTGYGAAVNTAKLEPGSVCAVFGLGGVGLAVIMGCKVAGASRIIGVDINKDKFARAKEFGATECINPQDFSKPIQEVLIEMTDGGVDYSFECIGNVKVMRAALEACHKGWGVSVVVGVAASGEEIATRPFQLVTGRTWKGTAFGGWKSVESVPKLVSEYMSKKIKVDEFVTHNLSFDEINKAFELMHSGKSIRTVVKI

`CCc1nccn1-c1ccc(-c2ccc(CCC(=O)O)n2-c2ccc(C(N)=O)cc2C)cc1` [Compound 69, 3-(1-(4-carbamoyl-2-methylphenyl)-5-(4-(2-ethyl-1H-imidazol-1-yl)phenyl)-1H-pyrrol-2-yl)propanoic acid] and `COc1cc(-n2ccnc2C)ccc1-c1ccc(CCC(=O)O)n1-c1ccc(C(N)=O)cc1C` [Compound 146, 3-(1-(4-carbamoyl-2-methylphenyl)-5-(2-methoxy-4-(2-methyl-1H-imidazol-1-yl)phenyl)-1H-pyrrol-2-yl)propanoic acid] cannot be ordered by IC50: under 1000 nM for the first, under 1000 nM for the second.

`COc1ccc(-c2ccc(CCC(=O)O)n2-c2ccc(O)cc2Cl)cc1` [Compound 80, 3-(1-(2-chloro-4-hydroxyphenyl)-5-(4-methoxy-phenyl)-1H-pyrrol-2-yl)propanoic acid] and `COc1ccc(-c2ccc(CCC(=O)O)n2-c2ccc(O)c(F)c2)cc1` [Compound 229, 3-(1-(3-fluoro-4-hydroxyphenyl)-5-(4-methoxyphenyl)-1H-pyrrol-2-yl)propanoic acid] cannot be ordered by IC50: under 1000 nM for the first, under 5000 nM for the second.

`COc1ccc(-c2ccc(CCC(=O)O)n2-c2ccc(C(N)=O)cc2C)c(C)c1` [Compound 110, 3-(1-(4-carbamoyl-2-methylphenyl)-5-(4-methoxy-2-methylphenyl)-1H-pyrrol-2-yl)propanoic acid] and `COc1ccc(-c2ccc(CCC(=O)O)n2-c2ccc(C(N)=O)cc2C)c(Cl)c1` [Compound 118, 3-(1-(4-carbamoyl-2-methylphenyl)-5-(2-chloro-4-methoxy-phenyl)-1H-pyrrol-2-yl)propanoic acid] cannot be ordered by IC50: under 1000 nM for the first, under 1000 nM for the second.

`Cc1cc(C(N)=O)ccc1-n1c(CCC(=O)O)ccc1-c1cc(-n2ccnc2)cs1` [Compound 120, 3-(5-(4-(1H-imidazol-1-yl)thiophen-2-yl)-1-(4-carbamoyl-2-methylphenyl)-1H-pyrrol-2-yl)propanoic acid] and `Cc1cc(C(N)=O)ccc1-n1c(CCC(=O)O)ccc1-c1cc(-n2ccnc2C)cs1` [Compound 144, 3-(1-(4-carbamoyl-2-methylphenyl)-5-(4-(2-methyl-1H-imidazol-1-yl)thiophen-2-yl)-1H-pyrrol-2-yl)propanoic acid] cannot be ordered by IC50: under 1000 nM for the first, under 1000 nM for the second.

`Cc1cc(C(N)=O)ccc1-n1c(CCC(=O)O)ccc1-c1ccc(Cl)cc1C(N)=O` [Compound 152, 3-(1-(4-carbamoyl-2-methylphenyl)-5-(2-carbamoyl-4-chloro-phenyl)-1H-pyrrol-2-yl)propanoic acid] and `COc1cc(Cl)ccc1-c1ccc(CCC(=O)O)n1-c1ccc(C(N)=O)cc1` [Compound 264, 3-(1-(4-carbamoylphenyl)-5-(4-chloro-2-methoxyphenyl)-1H-pyrrol-2-yl)propanoic acid] cannot be ordered by IC50: under 1000 nM for the first, under 1000 nM for the second.

`Cc1cc(NS(C)(=O)=O)ccc1-n1c(CCC(=O)O)ccc1-c1cc(Br)cs1` [Compound 183, 3-(5-(4-bromothiophen-2-yl)-1-(2-methyl-4-(methyl-sulfonamido)-phenyl)-1H-pyrrol-2-yl)propanoic acid] and `Cc1nccn1-c1csc(-c2ccc(CCC(=O)O)n2-c2ccc(NS(C)(=O)=O)cc2)c1` [Compound 267, 3-(5-(4-(2-methyl-1H-imidazol-1-yl)thiophen-2-yl)-1-(4-(methylsulfonamido)-phenyl)-1H-pyrrol-2-yl)propanoic acid] cannot be ordered by IC50: under 5000 nM for the first, under 1000 nM for the second.

`Cc1cc(S(N)(=O)=O)ccc1-n1c(CCC(=O)O)ccc1-c1ccc(-n2ccnc2C)s1` [Compound 194] and `Cc1nccn1-c1ccc(-c2ccc(CCC(=O)O)n2-c2ccc(O)cc2)s1` [Compound 273, 3-(1-(4-hydroxyphenyl)-5-(5-(2-methyl-1H-imidazol-1-yl)thiophen-2-yl)-1H-pyrrol-2-yl)propanoic acid] cannot be ordered by IC50: under 1000 nM for the first, under 1000 nM for the second.

`COc1ccc(-c2ccc(CCC(=O)O)n2-c2ccc3ncccc3c2)cc1` [Compound 216, 3-(5-(4-methoxyphenyl)-1-(quinolin-6-yl)-1H-pyrrol-2-yl)propanoic acid] and `COc1ccc(-c2ccc(CCC(=O)O)n2-c2ccc3ccncc3c2)cc1` [Compound 223, 3-(1-(isoquinolin-7-yl)-5-(4-methoxyphenyl)-1H-pyrrol-2-yl)propanoic acid] cannot be ordered by IC50: under 1000 nM for the first, under 5000 nM for the second.

`Cc1cc2nc[nH]c2cc1-n1c(CCC(=O)O)ccc1-c1ccc(-n2ccnc2)cc1` [Compound 219, 3-(5-(4-(1H-imidazol-1-yl)phenyl)-1-(5-methyl-1H-benzo[d]imidazol-6-yl)-1H-pyrrol-2-yl)propanoic acid] and `Cc1nccn1-c1ccc(-c2ccc(CCC(=O)O)n2-c2ccc3oc(=O)[nH]c3c2)cc1` [Compound 235, 3-(5-(4-(2-methyl-1H-imidazol-1-yl)phenyl)-1-(2-oxo-2,3-dihydrobenzo[d]oxazol-5-yl)-1H-pyrrol-2-yl)propanoic acid] cannot be ordered by IC50: under 1000 nM for the first, under 1000 nM for the second.

`COc1ccc(-c2ccc(CCC(=O)O)n2-c2ccc(C(N)=O)c(Cl)c2)cc1` [Compound 221, 3-(1-(4-carbamoyl-3-chlorophenyl)-5-(4-methoxyphenyl)-1H-pyrrol-2-yl)propanoic acid] and `COc1ccc(-c2ccc(CCC(=O)O)n2-c2ccc3c(N)noc3c2)cc1` [Compound 231, 3-(1-(3-aminobenzo[d]isoxazol-6-yl)-5-(4-methoxyphenyl)-1H-pyrrol-2-yl)propanoic acid] cannot be ordered by IC50: under 1000 nM for the first, under 1000 nM for the second.

`COc1ccc(-c2ccc(CCC(=O)O)n2-c2ccc(F)c(C#N)c2)cc1` [Compound 226, 3-(1-(3-cyano-4-fluorophenyl)-5-(4-methoxyphenyl)-1H-pyrrol-2-yl)propanoic acid] and `COc1ccc(-c2ccc(CCC(=O)O)n2-c2ccc(C(N)=O)s2)cc1` [Compound 237, 3-(1-(5-carbamoylthiophen-2-yl)-5-(4-methoxyphenyl)-1H-pyrrol-2-yl)propanoic acid] cannot be ordered by IC50: under 5000 nM for the first, under 5000 nM for the second.

`O=C(O)CCc1ccc(-c2ccccc2)n1-c1ccc(O)c(C(=O)O)c1` [Compound 232, 5-(2-(2-carboxyethyl)-5-phenyl-1H-pyrrol-1-yl)-2-hydroxybenzoic acid] and `COc1cc(Cl)ccc1-c1ccc(CCC(=O)O)n1-c1ccc(O)cc1` [Compound 262, 3-(5-(4-chloro-2-methoxyphenyl)-1-(4-hydroxyphenyl)-1H-pyrrol-2-yl)propanoic acid] cannot be ordered by IC50: under 5000 nM for the first, under 1000 nM for the second.

`Cc1nccn1-c1ccc(-c2ccc(CCC(=O)O)n2-c2ccc3[nH]c(=O)oc3c2)cc1` [Compound 236, 3-(5-(4-(2-methyl-1H-imidazol-1-yl)phenyl)-1-(2-oxo-2,3-dihydrobenzo[d]oxazol-6-yl)-1H-pyrrol-2-yl)propanoic acid] and `Cc1nccn1-c1ccc(-c2ccc(CCC(=O)O)n2-c2ccc(O)cc2)cc1` [Compound 249, 3-(1-(4-hydroxyphenyl)-5-(4-(2-methyl-1H-imidazol-1-yl)phenyl)-1H-pyrrol-2-yl)propanoic acid] cannot be ordered by IC50: under 5000 nM for the first, under 1000 nM for the second.

`COc1ccc(-c2ccc(CCC(=O)O)n2-c2ncc(C(N)=O)s2)cc1` [Compound 238, 3-(1-(5-carbamoylthiazol-2-yl)-5-(4-methoxyphenyl)-1H-pyrrol-2-yl)propanoic acid] and `Cc1nccn1-c1csc(-c2ccc(CCC(=O)O)n2-c2ccc(O)cc2)c1` [Compound 255, 3-(1-(4-hydroxyphenyl)-5-(4-(2-methyl-1H-imidazol-1-yl)thiophen-2-yl)-1H-pyrrol-2-yl)propanoic acid] cannot be ordered by IC50: under 5000 nM for the first, under 1000 nM for the second.
